Molecules are shown by their SMILES.

The assay concerns the target human VMAT2 (Homo sapiens, UniProt Q05940). The assay can be described thus: [3H]-α-DHTBZ radioligand binding in vesicles from human VMAT2-transfected HEK293 cells. The following applies: read-out: IC50 [3H]-α-DHTBZ binding.

Chain of human VMAT2 (Q05940 whole entry): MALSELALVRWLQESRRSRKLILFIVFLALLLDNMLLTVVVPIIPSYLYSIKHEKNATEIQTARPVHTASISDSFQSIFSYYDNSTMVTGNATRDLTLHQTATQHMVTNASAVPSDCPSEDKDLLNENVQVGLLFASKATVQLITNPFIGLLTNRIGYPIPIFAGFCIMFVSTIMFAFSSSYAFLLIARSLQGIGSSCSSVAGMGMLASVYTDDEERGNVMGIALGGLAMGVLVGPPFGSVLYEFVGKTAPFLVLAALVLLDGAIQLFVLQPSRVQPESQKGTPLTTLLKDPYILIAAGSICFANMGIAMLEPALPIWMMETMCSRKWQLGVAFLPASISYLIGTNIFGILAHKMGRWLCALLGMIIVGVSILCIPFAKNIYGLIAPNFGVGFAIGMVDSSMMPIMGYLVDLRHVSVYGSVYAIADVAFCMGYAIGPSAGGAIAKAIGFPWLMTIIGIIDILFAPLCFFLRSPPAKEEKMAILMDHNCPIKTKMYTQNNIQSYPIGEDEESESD

With `COc1cc2c(cc1OC)C1CC(=O)C(CC(C)C)CN1CC2` (stereo not shown) [TBZ, Tetrabenazine], the IC50 (usually the midpoint of a concentration-inhibition curve) is 19.2 nM.
